Patent US20040086965A1, “Casein peptide fragments with growth-influencing activity on cell cultures” (priority 2000, published 2004)

System: IPLB-Sf-21 cells
Assay: Determination of the biological activity of the peptides: cell count of serum-weaned IPLB-Sf-21 cultures after four days with peptide
Type: cell-based, Spodoptera frugiperda
Details: for Rel. yield: IPLB-Sf-21, TC100 medium, 4 days; for peptide concentration at which the maximum growth-promoting effect was achieved: serum-free TC100 medium
Protocol: IPLB-Sf-21 cells (ACC1 19, DSMZ in Braunschweig, Germany) were obtained from Dr. Victor Romanowski (Instituto de Bioquímica y Biología Molecular, Facultad de Ciencias Exactas, Universidad Nacional de la Plata, República Argentina) and maintained at 28° C. in TC-100 medium (Gibco/Life Technologies, Grand Island, N.Y., USA) containing 10% foetal calf serum (FCS, SIGMA, St. Louis, Mo., USA).
IPLB-Sf-21 cells were sown at a starting density of 5×10^4 cells in 1 ml of culture medium (TC-100+10% FCS) in the individual wells of 24-well culture plates. The plates were incubated at 27° C. for two days in a humidified chamber. During the following two days, the cultures were weaned off the serum additive by replacing the medium several times with pure TC100 medium and were then provided with the peptides or peptide fractions at various concentrations. Control cultures were cultivated in pure TC100 medium.
Four days later, the cells were harvested by being scraped off carefully. The cell count per culture well was determined by counting in a Neubauer chamber with an inverted microscope. The Neubauer chamber had two regions for counting. Each sample was counted three times in each of the two regions (six values per sample).

| Substance | Rel. yield (Decapeptide concentration 0.01 μg/ml, cell yield relative to cultures without FCS) | Rel. yield (Decapeptide concentration 0.1 μg/ml, cell yield relative to cultures without FCS) | Rel. yield (Decapeptide concentration 1 μg/ml, cell yield relative to cultures without FCS) | Rel. yield (Decapeptide concentration 10 μg/ml, cell yield relative to cultures without FCS) | Rel. yield (Decapeptide concentration 100 μg/ml, cell yield relative to cultures without FCS) | peptide concentration at which the maximum growth-promoting effect was achieved (IPLB-Sf-21 cells) [µg/mL] | effect of higher concentrations on cell growth (concentrations higher than 1 μg/ml, IPLB-Sf-21 cells) | Rel. yield (Tripeptide concentration 0.01 μg/ml, cell yield relative to cultures without peptide and without FCS) | Rel. yield (Tripeptide concentration 0.1 μg/ml, cell yield relative to cultures without peptide and without FCS) | Rel. yield (Tripeptide concentration 1 μg/ml, cell yield relative to cultures without peptide and without FCS) | Rel. yield (Tripeptide concentration 10 μg/ml, cell yield relative to cultures without peptide and without FCS) | Rel. yield (Tripeptide concentration 100 μg/ml, cell yield relative to cultures without peptide and without FCS) | concentrations resulting in growth inhibition (very high concentrations, IPLB-Sf-21 cells) [µg/mL] |
| --- | --- | --- | --- | --- | --- | --- | --- | --- | --- | --- | --- | --- | --- |
| Ac-HQPHQPLPPT-OH [Decapeptide] | 1.051 | 1.182 | 1.272 | 1.175 | 0.866 | 1 | growth inhibition |  |  |  |  |  |  |
| AC-HQP-OH [Tripeptide] |  |  |  |  |  | 0.1 |  | 1.251 | 1.345 | 1.101 | 1.030 | 0.826 | > 10 |
